Consider one compound from patent US20240285594A1, “COMPOSITIONS AND METHODS FOR TREATING PAIN IN ANIMALS” (North Carolina State University, priority 2023, published 2024).

In assay [1] the test system is cortisol. The assay can be described thus: Serum cortisol after surgical or sham castration of piglets (Part I, physiological assessment). The class given is in vivo. The following applies: 1 h post-castration, castrated piglets, compared to C (saline) and CL, FM 2.2 mg/kg intranasal, buffered lidocaine intra-inguinal. The method, then: A total of 197 Large White×Duroc cross male piglets from 35 litters were enrolled in the study (Table 1). Piglets were individually identified using ear tags (Allflex Global Piglet ear tags, Allflex Livestock Intelligence, Madison, WI), weighed and randomly allocated to one of eight treatment groups (FIG. 1).
Lidocaine was buffered by mixing 2 ml of 8.4% Sodium Bicarbonate to 20 ml of 2% lidocaine HCl injectable solution to achieve a pH of 6.8 (Lidocaine Hydrochloride, Covetrus, Dublin, Ohio, US). […] Piglets were held by both rear legs by one caretaker with the abdomen facing the individual administrating treatment. Buffered lidocaine was injected intra-inguinally (Picture 1) by a second caretaker using a ½ inch needle (Ideal® D3 20 Gauge, Neogen, Lansing, MI) inserted into a syringe (Prima Tech® 2 cc Bottle Mount Vaccinator, Prima Tech USA, Kenansville, NC). A total of 1.5 ml of buffered lidocaine per injection site was administered intramuscularly (IM) into each inguinal canal (left and right) at a 40-degree angle 5-7 cm from the scrotum and 2-3 cm from the abdominal wall. Piglets enrolled in the control treatment (C, S, CF, SF−T1: (C) Castration plus physiological saline (IM and IN; n=25); T2: (S) Sham plus physiological saline (IM and IN; n=25); T5: (CF) Castration plus flunixin (IN; n=25); T6: (SF) Sham plus flunixin (IN; n=24)) were handled in an identical manner and 1.5 ml of sterile saline was injected in the same two locations as described previously.
Immediately following intra-inguinal injection, piglets enrolled in the FM treatment groups were held in sternal recumbency by one individual and 2.2 mg/kg (Banamine®, Merck Animal Health, Madison, NJ, US) was administered in one nostril using was a MAD® nasal intranasal mucosal atomization device (Telefex Incorporated, Wayne, PA, US) attached to a Prima Tech® 0.5 cc bottle mount vaccinator. The same individual administered the treatment by gently holding the piglet's snout using their non-dominant hand to steady the head and administered the drug with the other hand. Piglets in the control group were handled in the same manner in an equivalent volume of 0.2 ml of sterile saline was administered as described above.
Castration was performed by one trained caretaker from the farm. Piglets were picked up, individually held by both hind legs with head down, and two vertical incisions were made through the skin of the scrotum over each testicle using a scalpel blade. Once the incisions were made, testicles were exposed, spermatic cords cut, and testicles were completely removed by traction. A sham castration was performed to mimic similar handling conditions in which piglets were picked up, held in the same manner, and had pressure applied to the scrotal area by the same individual responsible for castration.
Blood was collected 24 h prior to (−24 h), 1 h (1 h), and 24 h post castration (24 h, FIG. 2). Blood samples were collected using the technique described in other studies. The orbital sinus cavity was punctured using an Excel® disposable hypodermic needle 20G (Exel International, Quebec, Canada) and deposited into a 4 ml BD® red vacutainer serum tube (Med Vet International, Mettawa, IL). All tubes were maintained in a cooler and centrifuged (2,000×g for 15 min at 4° C.) no more than eight hours post-collection to separate serum. […]
Serum cortisol concentrations were quantified using a commercially available EIA kit (Arbor Assays DetectX Cortisol EIA Kit, Product #K003). […]

Assay [2] can be described thus: UPAPS behavioral pain scoring and rescue analgesia after castration (Part II). It counts as in vivo, piglets. The following applies: -1 h, 0 h and +3 h relative to castration; compared to C (saline). Here is the method:
Behavior scoring was obtained in real-time by observing each piglet for 4-min continuously using Unesp-Botucatu pig acute pain scale (UPAPS). Each piglet was scored by one trained observer at the following timepoints: 1 h before castration (−1 h), immediately post-castration (0 h), and 3 h post-castration (+3 h, FIG. 3). The 4-min sampling time was obtained from the methodology previously validated. Treatments were masked, randomized, and applied to each piglet by a senior researcher. The Unesp-Botucatu UPAPS scale evaluates five behavioral items, with each item divided into four descriptive levels. A numerical score was designated from “0” to “3”, with a “0” representing normal behavior (free of pain) and “3” corresponding to pronounced behavioral deviation (severe pain). Therefore, for each timepoint, piglets may receive a score ranging from 0 (min) to 15 (max; Table 3). Total pain scores were then calculated for each piglet per timepoint. […] This is most referred to rescue analgesia in the literature; and was conducted for each behavioral assessment. Total counts were calculated for piglets identified as requiring or not requiring rescue analgesia by treatment and timepoint. […]

In assay [3] the test system is prostaglandin E2 (PGE2). The assay can be described thus: Serum PGE2 after castration of piglets (Example 3). It counts as in vivo. The following applies: intra-inguinal lidocaine; any time point. Here is the method:
Pairwise comparisons of treatments at −24 h: P≥0.77. […] Pairwise comparisons of treatments at 24 h post-castration: P≥0.11.
The objective of this study was to evaluate the effects of intranasal flunixin and intra-inguinal lidocaine application on the castration associated inflammatory response in piglets, as described in Example 1.

In the case of `CCN(CC)CC(=O)Nc1c(C)cccc1C` [Buffered lidocaine, lidocaine], the cortisol concentrations result in assay [1] is “no effect”; in assay [1] (listed as CL), “not different”. The “total UPAPS scores” value in assay [2] was “no effect”. In addition, the “inflammation (PGE2)” value in assay [3] was “did not mitigate inflammation”.
